Reference: ChEMBL document CHEMBL1138862 (J Med Chem, 2006)

System: Escherichia coli
Test: Antibacterial activity against Escherichia coli W3110
Assay type: functional

SMILES | inhibition zone (IZ) [mm]
O=P(O)(O)C(O)(Cc1cn2ccccc2n1)P(=O)(O)O | 0
O=P(O)(O)C(O)(C1CC1)P(=O)(O)O [CYCLOPROPYL(HYDROXY)METHYLENEDIPHOSPHONIC ACID] | 0
CCCCc1ccc(NC(P(=O)(O)O)P(=O)(O)O)cc1 | 0
NCCCCC(O)(P(=O)(O)O)P(=O)(O)O | 0
O=P(O)(O)C(O)(Cc1ccccc1)P(=O)(O)O | 0
CC1CCN(C(P(=O)(O)O)P(=O)(O)O)CC1 | 0
CCCNC(P(=O)(O)O)P(=O)(O)O [(PROPYLAMINO)METHYLENEDIPHOSPHONIC ACID] | 0
O=P(O)(O)C(O)(Cc1cccc(F)c1)P(=O)(O)O | 0
CCC1CCCCN1C(P(=O)(O)O)P(=O)(O)O (stereo not drawn) | 0
O=P(O)(O)C(NC1CCC1)P(=O)(O)O [(CYCLOBUTYLAMINO)METHYLENEDIPHOSPHONIC ACID] | 0
CC1CCCN(C(P(=O)(O)O)P(=O)(O)O)C1 (stereo not drawn) | 0
CCc1cccc(NC(P(=O)(O)O)P(=O)(O)O)c1 | 0
O=P(O)(O)C(O)(CSc1ccncc1)P(=O)(O)O | 0
CCCCNC(P(=O)(O)O)P(=O)(O)O [(BUTYLAMINO)METHYLENEDIPHOSPHONIC ACID] | 0
O=P(O)(O)C(O)(C1CCC1)P(=O)(O)O [CYCLOBUTYL(HYDROXY)METHYLENEDIPHOSPHONIC ACID] | 0
O=P(O)(O)C(Nc1ccc(Cl)nc1)P(=O)(O)O | 0
O=P(O)(O)C(Nc1ncccc1COc1ccccc1)P(=O)(O)O | 0
O=P(O)(O)C(Nc1ccc(Cl)cc1Cl)P(=O)(O)O [2,4-DICHLOROPHENYLAMINOMETHYLENEBISPHOSPHONIC ACID] | 0
CC(N)CC(O)(P(=O)(O)O)P(=O)(O)O (stereo not drawn) | 0
O=P(O)(O)C(N1CCSCC1)P(=O)(O)O [THIOMORPHOLINOMETHYLENEDIPHOSPHONIC ACID] | 0
O=P(O)(O)C(O)(Cc1ccncc1)P(=O)(O)O | 0
CCC(C)NC(P(=O)(O)O)P(=O)(O)O (stereo not drawn) | 0

SMILES | inhibition zone (IZ) [mm]
O=P(O)(O)C(Nc1cc2ccccc2cn1)P(=O)(O)O | 0
O=P(O)(O)C(NC1CCCCCC1)P(=O)(O)O [INCADRONIC ACID] | 0
O.O=P(O)(O)C(O)(Cn1ccnc1)P(=O)(O)O [ZOLEDRONIC ACID] | 0
O=P(O)(O)CC(c1ccncc1)P(=O)(O)O (stereo not drawn) | 0
CN(Cc1ccccc1)C(P(=O)(O)O)P(=O)(O)O | 0
NCCC(O)(P(=O)(O)O)P(=O)(O)O [PAMIDRONIC ACID] | 0
CCCCCCCCCCCCCCCCCC(O)(P(=O)(O)O)P(=O)(O)O | 0
CC(C)c1cccc(C(C)C)c1NC(P(=O)(O)O)P(=O)(O)O | 0
CCCCOc1ccc(NC(P(=O)(O)O)P(=O)(O)O)cc1 | 0
CC1CC(C)CN(C(P(=O)(O)O)P(=O)(O)O)C1 (stereo not drawn) | 0
CCc1cccc(NC(P(=O)(O)O)P(=O)(O)O)n1 | 0
O=P(O)(O)C(CNc1ccccn1)P(=O)(O)O | 0
CCCCCCCCNC(P(=O)(O)O)P(=O)(O)O [(OCTYLAMINO)METHYLENEDIPHOSPHONIC ACID] | 0
CCC(C)CNC(P(=O)(O)O)P(=O)(O)O (stereo not drawn) | 0
CCCN(CCC)C(P(=O)(O)O)P(=O)(O)O [(DIPROPYLAMINO)METHYLENEDIPHOSPHONIC ACID] | 0
CCCCCN(C)CCC(O)(P(=O)(O)O)P(=O)(O)O [IBANDRONIC ACID] | 0
CC(C)(C)c1cc(NC(P(=O)(O)O)P(=O)(O)O)cc(C(C)(C)C)c1 | 0
NCCCCCC(O)(P(=O)(O)O)P(=O)(O)O [NERIDRONIC ACID] | 0
CCCCC(O)(P(=O)(O)O)P(=O)(O)O | 0
O=P(O)(O)C(=Nc1cccnc1)P(=O)(O)O | 0
O=P(O)(O)C(N1CCCCC1)P(=O)(O)O | 0
